The Ki is a measure of affinity in units of concentration, obtained from inhibition or displacement. In general, EC50 refers to the concentration that produces a half-maximal response.

Experiment [1] addresses T1, human PR (progesterone receptor) (Homo sapiens, UniProt P06401).
T1 construct: expressed in transfected cells; host or cells: HEK293 (293-PR lysate)
T1 sequence (P06401 1-933): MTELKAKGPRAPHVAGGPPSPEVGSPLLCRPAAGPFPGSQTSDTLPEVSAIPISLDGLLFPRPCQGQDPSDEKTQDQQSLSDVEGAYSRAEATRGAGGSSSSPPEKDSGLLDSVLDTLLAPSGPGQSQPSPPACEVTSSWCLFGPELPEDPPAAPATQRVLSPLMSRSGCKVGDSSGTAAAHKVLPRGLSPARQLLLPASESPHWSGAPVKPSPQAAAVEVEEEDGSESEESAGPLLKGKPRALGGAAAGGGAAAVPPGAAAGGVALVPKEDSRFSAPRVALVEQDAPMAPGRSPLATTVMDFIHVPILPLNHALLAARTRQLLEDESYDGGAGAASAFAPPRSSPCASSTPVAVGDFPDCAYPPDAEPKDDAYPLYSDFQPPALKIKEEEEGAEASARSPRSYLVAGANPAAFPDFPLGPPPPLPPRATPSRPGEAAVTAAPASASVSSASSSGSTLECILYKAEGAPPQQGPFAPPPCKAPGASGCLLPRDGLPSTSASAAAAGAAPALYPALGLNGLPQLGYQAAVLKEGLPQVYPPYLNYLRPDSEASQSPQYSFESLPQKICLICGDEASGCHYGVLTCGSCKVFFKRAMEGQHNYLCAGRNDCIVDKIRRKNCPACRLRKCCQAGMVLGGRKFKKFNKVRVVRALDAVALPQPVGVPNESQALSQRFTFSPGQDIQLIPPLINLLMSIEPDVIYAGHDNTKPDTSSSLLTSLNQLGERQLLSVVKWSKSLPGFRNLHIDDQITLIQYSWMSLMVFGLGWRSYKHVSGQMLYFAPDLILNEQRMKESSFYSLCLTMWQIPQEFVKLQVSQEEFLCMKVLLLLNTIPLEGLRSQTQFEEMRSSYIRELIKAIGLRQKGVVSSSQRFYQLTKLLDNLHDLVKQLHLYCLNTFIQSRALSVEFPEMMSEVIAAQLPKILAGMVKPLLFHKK
Nature of the experiment: Nuclear hormone receptor competition binding assay, PR. Conditions: HEK293 lysate overexpressing human PR, [3H]-methyltrienolone; mean of n=7. As for the experimental part: Cell lysates from human embryonic kidney HEK293 cells overexpressing human GR (glucocorticoid receptor), AR (androgen receptor), MR (mineralocorticoid receptor), or PR (progesterone receptor) are used for receptor-ligand competition binding assays to determine Ki values.
Briefly, steroid receptor competition binding assays are run in a buffer containing 20 mM Hepes buffer (pH=7.6), 0.2 mM EDTA, 75 mM NaCl, 1.5 mM MgCl2, 20% glycerol, 20 mM sodium molybdate, 0.2 mM DTT (dithiothreitol), 20 μg/ml aprotinin and 20 μg/ml leupeptin. Typically, steroid receptor binding assays include radio-labeled ligands, such as 0.3 nM [^3H]-dexamethasone for GR binding, 0.36 nM [^3H]-methyltrienolone for AR binding, 0.25 nM [^3H]-aldosterone for MR binding, and 0.29 nM [^3H]-methyltrienolone for PR binding, and either 20 μg 293-GR lysate, 22 μg 293-AR lysate, 20 μg 293-MR lysate or 40 μg 293-PR lysate per well. Assays are typically run in 96-well format. Competing test compounds are added at various concentrations ranging from about 0.01 nM to 10 μM. Non-specific binding is determined in the presence of 500 nM dexamethasone for GR binding, 500 nM aldosterone for MR binding, or 500 nM methyltrienolone for AR and PR binding. […] After an incubation of 2 hours, plates are read in a Wallac Microbeta counter. […]

For experiment [2], the target named is T2, human progesterone receptor (PR) (Homo sapiens, UniProt P06401).
T2 construct: expressed in transfected cells; host or cells: HEK293, transient transfection, CMV promoter plasmid
T2 sequence (P06401 1-933): T1 sequence (P06401 1-933)
Description: Nuclear hormone receptor functional modulation assay (GRE-luciferase reporter, HEK293), PR. In kind it is cell-based. Conditions: agonist mode, mean of n=4 or 5. From the text: The solvents, reagents, and ligands employed in the functional assay are readily available from commercial sources, or can be prepared by one of ordinary skill in the art.
Human embryonic kidney HEK293 cells are transfected with steroid hormone receptor and reporter gene plasmids using Fugene™ transfection reagent. Briefly, the reporter plasmid containing two copies of probasin ARE and TK(thymidine kinase) promoter upstream of the luciferase reporter cDNA, is transfected into HEK293 cells with a plasmid constitutively expressing human androgen receptor (AR) using viral CMV(cytomegalovirus) promoter. The reporter plasmid containing two copies of GRE and TK promoter upstream of the luciferase reporter cDNA is transfected with a plasmid constitutively expressing either human glucocorticoid receptor (GR), human mineralocorticoid receptor (MR), or human progesterone receptor (PR) using viral CMV promoter. […] After 24-hours incubation with test compounds, cells are lysed and luciferase activity is determined using standard techniques.
Data are fitted to a four parameter-fit logistic curve fit to determine EC50 values. […] IC50 values may be determined similarly using antagonist mode assay data. Percent inhibitions may also be determined relative to the response in the presence of agonist alone, as described above.

On to `CC/C(=C1\c2ccc(F)cc2OCc2ncccc21)c1cccc(NS(C)(=O)=O)c1` [Compound (I), (E)-N-{3-[1-(8-Fluoro-11H-10-oxa-1-aza-dibenzo[a,d]cyclohepten-5-ylidene)-propyl]-phenyl}-methanesulfonamide], for which the Ki in experiment [1] was roughly 32 nM. Besides, in experiment [2] (relative to 30 nM promegestone), the “efficacy in activating transcription, PR” value was “about 54%”. In addition, in experiment [2] (read-out: EC50 in activating transcription, PR), the EC50 is greater than 10000 nM.
